From patent US9669095B2, “Cyclosporin analogues for preventing or treating hepatitis C infection” (Enanta Pharmaceuticals, Inc., priority 2014, dated 2017)
pEC50: −log10 of the molar value. *1 amine or outer side, *2 acyl side, *3 side chain or, on linkers, in order; H or OH if unused. Where a SMILES comes first, the peptide text is derived from it. [ ]: non-standard residue; d: D form. X1 = C/C=C/C[C@@H](C)C1ON([*:1])[C@@H]1C(=O)[*:2]; X2 = CNCC(C)(C)[C@@H](C(=O)[*:2])N(C)[*:1]; NMeL = CN[C@@H](CC(C)C)C(=O)O; NMeV = CN[C@H](C(=O)O)C(C)C; dNMeA = CN[C@H](C)C(=O)O; Abu = CC[C@H](N)C(=O)O

Test system: HCV 1a genotype
Format: cell-based, hepatitis C virus
Conditions: Genotype-1a replicon, Luciferase assay, 72 hours

C/C=C/C[C@@H](C)C1ON2C(=O)[C@H](C(C)C)N(C)C(=O)[C@H](CC(C)C)N(C)C(=O)[C@H](CC(C)C)N(C)C(=O)[C@@H](C)NC(=O)[C@H](C)NC(=O)[C@H](CC(C)C)N(C)C(=O)[C@H](C(C)C)NC(=O)[C@H](C(C)(C)CNC)N(C)C(=O)[C@@H](C)N(C)C(=O)[C@H](CC)NC(=O)[C@H]12 (stereo partly shown) [Example 1] (cyclo(A[dA][NMeL][NMeL][NMeV][X1][Abu][dNMeA][X2]V[NMeL])) gave a pEC50 of 7.00 to 8.00.
